# Source: PubChem BioAssay AID328 (DTP/NCI, 2004)
# Several values for one entry are separate records, joined by “and”; a condition that tells them apart may be missing. Equal entries are not always repeated. Inconclusive results and toxic doses are left out.
# Test system: BDF1 mice, P388 leukemia ip, median survival T/C
# Assay: NCI In Vivo Anticancer Drug Screen. Data for tumor model P388 Leukemia (intraperitoneal) in B6D2F1 (BDF1) mice
# Details: endpoint: median survival time, higher = longer survival
# Procedure, shortened: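 Each value expresses how treatment altered survival: treated-mouse outcome over vehicle-mouse outcome, both groups bearing the transplanted tumour.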
# [1] = dose: 25.0 mg/kg/injection, schedule: Q01DX009 (ip), vehicle: Klucel (hydroxypropylcellulose) (HPC)
# [2] = dose: 50.0 mg/kg/injection, schedule: Q01DX009 (ip), vehicle: Klucel (hydroxypropylcellulose) (HPC)
# [3] = dose: 100.0 mg/kg/injection, schedule: Q01DX001 (ip), vehicle: saline with Tween-80
# [4] = dose: 200.0 mg/kg/injection, schedule: Q01DX001 (ip), vehicle: saline with Tween-80
# [5] = dose: 400.0 mg/kg/injection, schedule: Q01DX001 (ip), vehicle: saline with Tween-80
# [6] = dose: 50.0 mg/kg/injection, schedule: Q01DX009 (ip), vehicle: saline with Tween-80
# [7] = dose: 100.0 mg/kg/injection, schedule: Q01DX009 (ip), vehicle: saline with Tween-80
# [8] = dose: 200.0 mg/kg/injection, schedule: Q01DX009 (ip), vehicle: saline with Tween-80
# [9] = dose: 100.0 mg/kg/injection, schedule: Q01DX009 (ip), vehicle: Klucel (hydroxypropylcellulose) (HPC)
# [10] = dose: 100.0 mg/kg/injection, schedule: Q04DX003 (ip), vehicle: Klucel (hydroxypropylcellulose) (HPC)
# [11] = dose: 200.0 mg/kg/injection, schedule: Q04DX003 (ip), vehicle: Klucel (hydroxypropylcellulose) (HPC)
# [12] = dose: 100.0 mg/kg/injection, schedule: Q04DX003 (ip), vehicle: saline with Tween-80
# [13] = dose: 200.0 mg/kg/injection, schedule: Q04DX003 (ip), vehicle: saline with Tween-80
# [14] = dose: 50.0 mg/kg/injection, schedule: Q01DX009 (ip), vehicle: water
# [15] = dose: 100.0 mg/kg/injection, schedule: Q01DX009 (ip), vehicle: water
# [16] = dose: 100.0 mg/kg/injection, schedule: Q04DX003 (ip), vehicle: water
# [17] = dose: 200.0 mg/kg/injection, schedule: Q04DX003 (ip), vehicle: water
# [18] = dose: 400.0 mg/kg/injection, schedule: Q04DX003 (ip), vehicle: water
smiles,measurement,setting,value
Cc1cc(C)c(N)c(C)c1N,T/C,[1],118 % of control
same,T/C,[2],95 % of control
same,T/C,"dose: 100.0 mg/kg/injection, schedule: Q04DX003 (ip), vehicle: other",105 % of control
same,T/C,"dose: 200.0 mg/kg/injection, schedule: Q04DX003 (ip), vehicle: other",100 % of control
same,T/C,"dose: 400.0 mg/kg/injection, schedule: Q04DX003 (ip), vehicle: other",105 % of control
CN(C)c1ccc(/C=C2\NC(=O)NC2=O)cc1,T/C,[3],103 % of control
same,T/C,[4],97 % of control
same,T/C,[5],95 % of control
C/C(c1nc(N)nc(N)c1-c1ccc(Cl)cc1)=[N+](\C)[O-],T/C,[3],95 % of control
same,T/C,[4],104 % of control
same,T/C,[5],97 % of control
CCOC(=O)CN1C=C(C(=O)c2cc3ccccc3n2S(=O)(=O)c2ccccc2)CCC1,T/C,"dose: 0.05 mg/kg/injection, schedule: Q01DX009 (ip), vehicle: saline",104 % of control
same,T/C,"dose: 0.06 mg/kg/injection, schedule: Q01DX009 (ip), vehicle: saline",105 % of control and 115 % of control
same,T/C,"dose: 0.1 mg/kg/injection, schedule: Q01DX009 (ip), vehicle: saline",106 % of control
same,T/C,"dose: 0.12 mg/kg/injection, schedule: Q01DX009 (ip), vehicle: saline",150 % of control
same,T/C,"dose: 0.13 mg/kg/injection, schedule: Q01DX009 (ip), vehicle: saline",88 % of control
same,T/C,"dose: 0.2 mg/kg/injection, schedule: Q01DX009 (ip), vehicle: saline",114 % of control
same,T/C,"dose: 0.25 mg/kg/injection, schedule: Q01DX009 (ip), vehicle: saline",105 % of control and 110 % of control
same,T/C,"dose: 0.5 mg/kg/injection, schedule: Q01DX009 (ip), vehicle: saline",115 % of control
same,T/C,"dose: 1.0 mg/kg/injection, schedule: Q01DX009 (ip), vehicle: saline",100 % of control
same,T/C,"dose: 2.0 mg/kg/injection, schedule: Q01DX009 (ip), vehicle: saline",99 % of control and 105 % of control
same,T/C,"dose: 4.0 mg/kg/injection, schedule: Q01DX009 (ip), vehicle: saline",121 % of control
same,T/C,"dose: 8.0 mg/kg/injection, schedule: Q01DX009 (ip), vehicle: saline",104 % of control
same,T/C,"dose: 16.0 mg/kg/injection, schedule: Q01DX009 (ip), vehicle: saline",109 % of control
same,T/C,"dose: 32.0 mg/kg/injection, schedule: Q01DX009 (ip), vehicle: saline",106 % of control
C=C(C)C1CC2(C)C(C)CC(O)CC2C(OC(=O)C=C(C)C)C1O (centres undefined),T/C,"dose: 0.75 mg/kg/injection, schedule: Q01DX009 (ip), vehicle: saline",94 % of control
same,T/C,"dose: 1.5 mg/kg/injection, schedule: Q01DX009 (ip), vehicle: saline",94 % of control
same,T/C,"dose: 3.0 mg/kg/injection, schedule: Q01DX009 (ip), vehicle: saline",103 % of control
same,T/C,"dose: 6.0 mg/kg/injection, schedule: Q01DX009 (ip), vehicle: saline",89 % of control
CCOC(=O)/C=C(\C)C(=O)c1ccc(OC)c(OC)c1OCc1ccccc1,T/C,"dose: 12.5 mg/kg/injection, schedule: Q01DX009 (ip), vehicle: saline with Tween-80",100 % of control
same,T/C,"dose: 25.0 mg/kg/injection, schedule: Q01DX009 (ip), vehicle: saline with Tween-80",100 % of control
same,T/C,[6],90 % of control
same,T/C,[7],90 % of control
same,T/C,[8],100 % of control
COc1cc2ccc(C(C)NCC#N)cc2cc1OC (centres undefined),T/C,[2],109 % of control
same,T/C,"dose: 50.0 mg/kg/injection, schedule: Q04DX003 (ip), vehicle: Klucel (hydroxypropylcellulose) (HPC)",100 % of control
same,T/C,[9],100 % of control
same,T/C,[10],95 % of control
same,T/C,"dose: 200.0 mg/kg/injection, schedule: Q01DX009 (ip), vehicle: Klucel (hydroxypropylcellulose) (HPC)",122 % of control
same,T/C,[11],95 % of control
CC[C@@]12CCCN3CC[C@]4(c5cccc(OC)c5N(C(C)=O)[C@@H]4CC1)[C@H]32,T/C,"dose: 6.25 mg/kg/injection, schedule: Q01DX009 (ip), vehicle: Klucel (hydroxypropylcellulose) (HPC)",100 % of control
same,T/C,"dose: 12.5 mg/kg/injection, schedule: Q01DX009 (ip), vehicle: Klucel (hydroxypropylcellulose) (HPC)",95 % of control
same,T/C,[1],104 % of control
same,T/C,"dose: 50.0 mg/kg/injection, schedule: Q01DX001 (ip), vehicle: Klucel (hydroxypropylcellulose) (HPC)",108 % of control
same,T/C,"dose: 100.0 mg/kg/injection, schedule: Q01DX001 (ip), vehicle: Klucel (hydroxypropylcellulose) (HPC)",116 % of control
same,T/C,"dose: 200.0 mg/kg/injection, schedule: Q01DX001 (ip), vehicle: Klucel (hydroxypropylcellulose) (HPC)",91 % of control
CCc1ccc(C(C)(C)C)cc1,T/C,"dose: 50.0 mg/kg/injection, schedule: Q04DX003 (ip), vehicle: saline with Tween-80",109 % of control
same,T/C,[12],104 % of control
same,T/C,"dose: 132.0 mg/kg/injection, schedule: Q01DX009 (ip), vehicle: saline with Tween-80",118 % of control
same,T/C,[13],100 % of control
CC(C)(O)c1ccccc1[S+]1OC(C)(C)c2ccccc21 (centres undefined),T/C,[3],98 % of control
same,T/C,"dose: 100.0 mg/kg/injection, schedule: Q01DX001 (ip), vehicle: saline",100 % of control
same,T/C,[4],103 % of control
same,T/C,"dose: 200.0 mg/kg/injection, schedule: Q01DX001 (ip), vehicle: saline",102 % of control
same,T/C,[5],118 % of control
same,T/C,"dose: 400.0 mg/kg/injection, schedule: Q01DX001 (ip), vehicle: saline",117 % of control
COC1CCC(OC2CC(C3(C)CCC4(CC(O)C(C)C(C(C)/C=C(\C)C(=O)C(C)CC(C)C(=O)O)O4)O3)OC3(OC(C4OC(O)(CO)C(C)CC4C)CC3C)C2C)OC1C (centres undefined),T/C,"dose: 62.5 micrograms/kg/injection, schedule: Q01DX009 (ip), vehicle: Klucel (hydroxypropylcellulose) (HPC)",111 % of control
same,T/C,"dose: 125.0 micrograms/kg/injection, schedule: Q01DX009 (ip), vehicle: Klucel (hydroxypropylcellulose) (HPC)",97 % of control
same,T/C,"dose: 250.0 micrograms/kg/injection, schedule: Q01DX009 (ip), vehicle: Klucel (hydroxypropylcellulose) (HPC)",97 % of control
same,T/C,"dose: 500.0 micrograms/kg/injection, schedule: Q01DX009 (ip), vehicle: Klucel (hydroxypropylcellulose) (HPC)",97 % of control
Cc1ccc(Nc2ccc(Nc3ccc(C)cc3)c3c2C(=O)c2ccccc2C3=O)cc1,T/C,[6],90 % of control
same,T/C,[7],86 % of control
same,T/C,[12],88 % of control
same,T/C,[8],90 % of control
same,T/C,[13],100 % of control
O=c1cc(N=Nc2ccc(O)cc2)[nH]c(=O)[nH]1,T/C,"dose: 25.0 mg/kg/injection, schedule: Q01DX009 (ip), vehicle: water",100 % of control
same,T/C,[14],106 % of control
same,T/C,"dose: 50.0 mg/kg/injection, schedule: Q04DX003 (ip), vehicle: water",104 % of control and 107 % of control
same,T/C,[15],106 % of control
same,T/C,[16],93 % of control and 98 % of control
same,T/C,"dose: 200.0 mg/kg/injection, schedule: Q01DX009 (ip), vehicle: water",114 % of control
same,T/C,[17],98 % of control and 102 % of control and 117 % of control
same,T/C,"dose: 400.0 mg/kg/injection, schedule: Q01DX009 (ip), vehicle: water",100 % of control
same,T/C,[18],109 % of control and 111 % of control and 117 % of control
COc1cc2ccc3c[n+]4ccccc4cc3c2cc1OC,T/C,[1],102 % of control
same,T/C,"dose: 25.0 mg/kg/injection, schedule: Q01DX009 (ip), vehicle: saline",112 % of control
same,T/C,[2],116 % of control
same,T/C,"dose: 50.0 mg/kg/injection, schedule: Q01DX009 (ip), vehicle: saline",117 % of control
same,T/C,"dose: 100.0 mg/kg/injection, schedule: Q01DX009 (ip), vehicle: saline",114 % of control
same,T/C,"dose: 150.0 mg/kg/injection, schedule: Q01DX009 (ip), vehicle: Klucel (hydroxypropylcellulose) (HPC)",118 % of control
SC1CC[N-]CC1.SC1CC[N-]CC1.[Cl][Pt+2][Cl],T/C,[14],107 % of control
same,T/C,[15],91 % of control
same,T/C,[16],98 % of control
same,T/C,[17],98 % of control
same,T/C,[18],96 % of control
CNS(=O)(=O)c1ccc2c(c1)nc(SC)n2C,T/C,[12],100 % of control
same,T/C,[13],100 % of control
same,T/C,"dose: 400.0 mg/kg/injection, schedule: Q04DX003 (ip), vehicle: saline with Tween-80",104 % of control
C[C@]12CCC(=O)C=C1CC[C@H]1[C@@H]3CC[C@@]4(OCC4=O)[C@@]3(C)C[C@H](O)[C@@]12F,T/C,[1],96 % of control
same,T/C,[2],104 % of control
same,T/C,[9],104 % of control
same,T/C,[10],104 % of control
same,T/C,[11],112 % of control
same,T/C,"dose: 400.0 mg/kg/injection, schedule: Q04DX003 (ip), vehicle: Klucel (hydroxypropylcellulose) (HPC)",108 % of control
